Measured values: the supplement of paper PMC11061612

Key:
Assay in all cases: Bliss excess, mean over the matrix (fraction); higher = more synergy
[1] = tested on: C-33-A (Cervical Carcinoma)
Summary of the method: (§1)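 Cell lines grown in DMEM/F12 or RPMI with 10% FBS were plated in 1536-well plates and held 24 hours at 37°C, 5% CO2 before 72 hours of exposure to two-drug dose matrices, with DMSO typically at 0.2%. CellTiter-Glo 2.0 luminescence gave viability, which was converted to inhibition. Vehicle wells were set to 0 and blank wells to 1. Combination Emax is the second-highest inhibition in the matrix, and Bliss excess is the observed combination effect minus the expected EA + EB − EA·EB, where EA and EB are the single-agent effects.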

[2] = tested on: COR-L88 (Small Cell Lung Carcinoma)
Summary of the method: as §1

[3] = tested on: CPC-N (Small Cell Lung Carcinoma)
Summary of the method: as §1

GAK (Melanoma) = tested on: GAK (Melanoma)
Summary of the method: as §1

[4] = tested on: HPAF-II (Pancreatic Carcinoma)
Summary of the method: as §1

[5] = tested on: IA-LM (Non-Small Cell Lung Carcinoma)
Summary of the method: as §1

IST-MEL1 (Melanoma) = tested on: IST-MEL1 (Melanoma)
Summary of the method: as §1

[6] = tested on: LCLC-103H (Non-Small Cell Lung Carcinoma)
Summary of the method: as §1

[7] = tested on: LS-1034 (Colorectal Carcinoma)
Summary of the method: as §1

[8] = tested on: MDA-MB-415 (Breast Carcinoma)
Summary of the method: as §1

[9] = tested on: MONO-MAC-6 (Acute Myeloid Leukemia)
Summary of the method: as §1

[10] = tested on: MS-1 (Small Cell Lung Carcinoma)
Summary of the method: as §1

[11] = tested on: NAMALWA (Burkitt's Lymphoma)
Summary of the method: as §1

[12] = tested on: NCI-H3118 (Head and Neck Carcinoma)
Summary of the method: as §1

[13] = tested on: SCC-4 (Oral Cavity Carcinoma)
Summary of the method: as §1

[14] = tested on: SK-CO-1 (Colorectal Carcinoma)
Summary of the method: as §1

[15] = tested on: SKG-IIIa (Cervical Carcinoma)
Summary of the method: as §1

[16] = tested on: SNU-423 (Hepatocellular Carcinoma)
Summary of the method: as §1

[17] = tested on: T84 (Colorectal Carcinoma)
Summary of the method: as §1

[18] = tested on: ZR-75-30 (Breast Carcinoma)
Summary of the method: as §1

| Compound | Bliss excess [1] | Bliss excess [2] | Bliss excess [3] | Bliss excess (GAK (Melanoma)) | Bliss excess [4] | Bliss excess [5] | Bliss excess (IST-MEL1 (Melanoma)) | Bliss excess [6] | Bliss excess [7] | Bliss excess [8] | Bliss excess [9] | Bliss excess [10] | Bliss excess [11] | Bliss excess [12] | Bliss excess [13] | Bliss excess [14] | Bliss excess [15] | Bliss excess [16] | Bliss excess [17] | Bliss excess [18] |
| --- | --- | --- | --- | --- | --- | --- | --- | --- | --- | --- | --- | --- | --- | --- | --- | --- | --- | --- | --- | --- |
| O=C(c1cc(Cc2n[nH]c(=O)c3ccccc23)ccc1F)N1CCN(C(=O)C2CC2)CC1 [Olaparib] + CN(CC[C@H](CSC1=CC=CC=C1)NC2=C(C=C(C=C2)S(=O)(=O)NC(=O)C3=CC=C(C=C3)N4CCC(CC4)[C@H](C5=CC=CC=C5C6=CC=C(C=C6)Cl)O)S(=O)(=O)C(F)(F)F)CCO [AZD4320] (first compound max 10 µM, 7x7, partner max 1 µM) | 0.0014 | 0.0077 | -0.0247 | -0.0104 | -0.0399 | 0.0167 | -0.0373 | -0.0339 | -0.0388 | -0.0718 | 0.0291 | 0.0013 | -0.0236 | -0.0182 | -0.0161 | 0.0256 | -0.0526 | -0.0182 | -0.0441 | -0.0327 |
| CN(CCO)CC[C@H](CSc1ccccc1)Nc1ccc(S(=O)(=O)NC(=O)c2ccc(N3CCC([C@@H](O)c4ccccc4-c4ccc(Cl)cc4)CC3)cc2)cc1S(=O)(=O)C(F)(F)F [AZD4320] + CC(=O)O[C@H]1C(=O)[C@@]2(C)[C@H]([C@H](OC(=O)c3ccccc3)[C@]3(O)C[C@H](OC(=O)[C@H](O)[C@@H](NC(=O)c4ccccc4)c4ccccc4)C(C)=C1C3(C)C)[C@]1(OC(C)=O)CO[C@@H]1C[C@@H]2O [Paclitaxel] (first compound max 1 µM, 7x7, partner max 3 µM) | 0.0811 | 0.25 | 0.0262 | 0.0815 | 0.0952 | 0.08 | 0.238 | 0.0719 | 0.0038 | -0.0059 | 0.0285 | 0.0825 | -0.01 | 0.019 | 0.0946 | -0.0002 | 0.133 | 0.0819 | -0.0222 | 0.0901 |
| C[C@@H]1COCCN1c1cc(C2([S@](C)(=N)=O)CC2)nc(-c2ccnc3[nH]ccc23)n1 [AZD6738] + C1CC(C1)(C(=O)[O-])C(=O)[O-].N.N.[Pt+2] [Carboplatin] (first compound max 10 µM, 7x7, partner max 10 µM) | -0.0043 | -0.0207 | -0.0391 | -0.0442 | -0.0585 | -0.047 | -0.0271 | -0.0447 | -0.0575 | 0.0134 | -0.0075 | -0.093 | -0.0293 | -0.0423 | 0 | 0.0009 | -0.0079 | -0.0425 | -0.0041 | -0.0119 |
| Cc1nc(-c2cn3c(n2)-c2ccc(-c4cnn(C(C)(C)C(N)=O)c4)cc2OCC3)n(C(C)C)n1 [Taselisib] + O=C(Nc1ccc2[nH]nc(-c3ccncc3)c2c1)[C@@H]1CCN(CC(=O)N2CCN(c3ccc(-c4ncccn4)cc3)CC2)C1 [SCH772984] (first compound max 10 µM, 7x7, partner max 5 µM) | 0.0551 | 0.004 | 0.0196 | 0.0592 | 0.224 | -0.0058 | 0.106 | 0.0056 | 0.0307 | -0.0012 | 0.0832 | 0.0145 | 0.0894 | 0.0633 | 0.0899 | 0.0763 | 0.0751 | 0.0656 | 0.072 | 0.0556 |
| O=C(c1cc(Cc2n[nH]c(=O)c3ccccc23)ccc1F)N1CCN(C(=O)C2CC2)CC1 [Olaparib] + CC1(C)CCC(CN2CCN(c3ccc(C(=O)NS(=O)(=O)c4ccc(NCC5CCOCC5)c([N+](=O)[O-])c4)c(Oc4cnc5[nH]ccc5c4)c3)CC2)=C(c2ccc(Cl)cc2)C1 [Venetoclax] (first compound max 10 µM, 7x7, partner max 1 µM) | -0.0389 | 0.0604 | -0.0439 | -0.048 | -0.0183 | -0.0339 | 0.0186 | -0.0212 | -0.0413 | -0.064 | 0.0368 | -0.0266 | 0.0044 | -0.028 | -0.0455 | -0.0405 | -0.0695 | -0.0472 | -0.0524 | -0.0247 |
| C[C@@H](Nc1cc(F)cc(F)c1)c1cc(C(=O)N(C)C)cc2c(=O)cc(N3CCOCC3)oc12 [AZD8186] + C1CN(CCC1(C(=O)N[C@@H](CCO)C2=CC=C(C=C2)Cl)N)C3=NC=NC4=C3C=CN4 [AZD5363] (first compound max 10 µM, 7x7, partner max 10 µM) | -0.0501 | -0.0269 | -0.0478 | -0.0303 | 0.0403 | 0.001 | -0.013 | -0.0345 | -0.0177 | -0.0251 | 0.0692 | -0.0446 | 0.0078 | -0.022 | -0.0276 | 0.0309 | -0.0225 | -0.0692 | -0.0085 | -0.0104 |
